Results on six compounds are retold here after patent US20080085889A1, “Amidomethyl-Substituted 1-(Carboxyalkyl) Cyclopentyl-Carbonylamino-Benzazepine-N-Acetic Acid Compounds, Process and Intermediate Products for Their Preparation and Pharmaceutical Compositions Containing Them” (SOLVAY PHARMACEUTICALS GmbH, priority 2003, published 2008).

Where only a bound is given, the exact number is not on record here.

Series [1] relates to formation of ET-1 from Big-ET-1. The series can be described thus: In vivo inhibition of the Big-ET-1-induced blood pressure increase in anaesthetised rats, i.v. single dose. Set-up: species or system Rats (Sprague-Dawley). The following applies: Rattus norvegicus, iv, 5 min before 0.5 nmol/kg Big-ET-1, negative values indicate inhibition, read-out: % substance-related inhibition of the maximum Big-ET effect on SAP vs. control; for change in vivo at 3 µmol/kg: 3 μmol/kg; for change in vivo at 10 µmol/kg: 10 μmol/kg. An excerpt: 3. In Vivo Investigation of the Inhibitory Action of the Substances on the Formation of ET-1 from Big-ET-1 in Rats
ET-1 is an endogenous substance with strong vasoconstrictive effect. An increase in the ET-1 level results in an increase in blood pressure. Upon infusion of Big-ET-1, an increase in blood pressure takes place to the extent that ET-1 is produced therefrom by enzyme-catalysed cleavage of Big-ET-1. As a measurement of the enzyme-inhibiting action of the substances, their inhibitory action on the increase in blood pressure induced by infusion of Big-ET-1 was determined.
Rats (Sprague-Dawley, CRLD=Charles River) were anaesthetised with 1 ml/kg Rompun/Ketavet 1:1. A pressure transducer (Statham) was inserted into the carotid artery to measure blood pressure. One jugular vein was cannulated for administering the substance, and the other for administering Big-ET-1. After a 20-minute equilibration phase, the rats were administered the corresponding test substance of Formula I at a dose of as a rule 10 μmol/kg (if not stated otherwise), or a vehicle. Five minutes later, 0.5 nmol/kg Big-ET-1 was infused over a period of one minute. The systolic (SAP=systolic arterial pressure) and the diastolic (DAP=diastolic arterial pressure) blood pressure and the heart rate were each measured before administration of the substance, then immediately before administration of Big-ET and in each case every five minutes over a period of 30 minutes after Big-ET administration using the pressure transducer in known manner. The maximum Big-ET-induced increase in blood pressure and the maximum lowering of heart rate were calculated from the measured values as the difference between the value measured at the moment of maximum development of the Big-ET action (typically after 5 min.) and the value measured before Big-ET infusion. Furthermore, the integral of the blood pressure curve under the influence of Big-ET-1 was determined over 30 minutes (AUC=area under the curve).
The percentage inhibition of the maximum Big-ET-1 effect on the systolic arterial blood pressure (SAP) after i.v. administration of the test substances compared with administration of a vehicle is set forth in the following Table 3a:
Data given in table 3a as negative values indicate an inhibitory effect.

Series [2] has as its system maximal SAP response to Big-ET. The series can be described thus: In vivo i.v. potency (ID50) to inhibit maximal SAP response to Big-ET in anesthetized rats. Also on record: species or system Rats (Sprague-Dawley). Particulars: Rattus norvegicus, iv, dose at which the pressor effect of Big-ET was suppressed by 50%. How it is done: Rats (Sprague-Dawley, CRLD=Charles River) were anaesthetised with 1 ml/kg Rompun/Ketavet 1:1. A pressure transducer (Statham) was inserted into the carotid artery to measure blood pressure.
For intravenous testing, one jugular vein was cannulated for administering the substance, and the other for administering Big-ET-1. […] Five minutes later, 0.5 nmol/kg Big-ET-1 was infused over a period of one minute. SAP, DAP, and heart rate were measured before administration of the substance, then before administration of Big-ET, and subsequently every five minutes after Big-ET administration over a period of 30 minutes using the pressure transducer in known manner. The maximum Big-ET-induced increase in blood pressure was calculated from the measured values as the difference between the value measured at the moment of maximum development of the Big-ET action (typically after 5 min) and the value measured before Big-ET infusion. The dose at which the pressor effect of Big-ET was suppressed by 50% (ID50) was estimated from the inhibitory effects observed over the range of dosages tested (n>5 rats for each dose).
The intravenous potency of the test compounds of Formula I (given as ID50 values) to inhibit the maximal SAP response to Big ET in anesthetized rats is set forth in the following Table 3b: […]

For series [3], the target named is T1, soluble, human recombinant NEP (Homo sapiens, UniProt P08473).
T1 construct: soluble, human recombinant NEP; purchased Prof; Crine, University of Montreal, Canada
T1 sequence (P08473 52-750 limits assumed): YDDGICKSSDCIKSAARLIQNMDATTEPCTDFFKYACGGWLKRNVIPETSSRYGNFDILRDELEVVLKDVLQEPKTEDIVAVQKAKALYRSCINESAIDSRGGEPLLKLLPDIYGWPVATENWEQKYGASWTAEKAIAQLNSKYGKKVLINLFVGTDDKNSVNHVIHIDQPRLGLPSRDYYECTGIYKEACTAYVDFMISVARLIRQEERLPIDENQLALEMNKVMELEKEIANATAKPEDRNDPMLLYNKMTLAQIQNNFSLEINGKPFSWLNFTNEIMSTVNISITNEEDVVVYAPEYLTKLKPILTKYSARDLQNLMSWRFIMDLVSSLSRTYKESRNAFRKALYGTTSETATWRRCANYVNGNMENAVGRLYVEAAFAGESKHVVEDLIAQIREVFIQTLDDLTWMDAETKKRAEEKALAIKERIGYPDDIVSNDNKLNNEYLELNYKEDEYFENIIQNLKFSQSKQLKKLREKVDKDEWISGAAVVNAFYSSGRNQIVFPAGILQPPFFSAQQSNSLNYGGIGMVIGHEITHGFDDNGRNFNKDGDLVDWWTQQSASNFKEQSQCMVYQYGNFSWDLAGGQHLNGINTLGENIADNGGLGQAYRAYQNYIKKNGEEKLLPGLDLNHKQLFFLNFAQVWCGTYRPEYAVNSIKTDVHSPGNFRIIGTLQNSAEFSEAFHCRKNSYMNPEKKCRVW
In words: In-vitro investigation of the NEP inhibitory action (fluorescence-quenched Big-ET-1 analogue, HPLC). It is filed as biochemical. How it is done:
1. In-Vitro Investigation of the NEP Inhibitory Action of the Substances
In this test, the measure of the inhibitory activity of the substances which was determined was their IC50 value. The IC50 value of a test substance having enzyme-inhibitory activity is that concentration of the test substance at which 50% of the enzymatic activity of the NEP is blocked.
70 μl test buffer, 10 μl enzyme working solution and 10 μl test substance solution were mixed in an Eppendorf vessel and preincubated at 37° C. for 15 minutes (=min.). Then 10 μl substrate stock solution was added and the test batch was incubated for 60 minutes at 37° C. The enzymatic reaction was then ended by 5-minutes' heating to 95° C. After centrifugation (Heraeus Biofuge B, 3 min.), the liquid supernatant was investigated by HPLC in accordance with the following specifications.
The substrate was separated from cleavage products by means of reversed-phase HPLC (CC 125/4 Nucleosil 300/5 C18 RP column with CC 8/4 Nucleosil 100/5 C18 precolumn, from Macherey-Nagel, Düren, Germany). For this, 60 μl of the test mixture was injected into the HPLC sample injection point and the column was then eluted at a flow rate of 1 ml/min with the following gradient:
Mobile Phase B: 100% acetonitrile+0.5M H3PO4
All the peptides were detected by absorption at 214 nm and by fluorescence with an excitation wavelength of 328 nm and an emission wavelength of 393 nm.
Upon enzymatic cleavage of the peptide, the fluorophore (=Mca) and the quencher end up in different peptide fragments, which reduces the effectiveness of the quench. […] The increasing fluorescence signal (corresponds to the area, A) of the HPLC peak of the peptide with the non-quenched Mca fluorophore is used for the further calculations. This signal was compared for samples with (=Ainhib) and without (=Acontrol) test substance of Formula I, and the value “% inhibition” was calculated on the basis of the respective peak areas according to the following formula: % inhibition=100*(1−Ainhib/Acontrol)
All the samples were measured in duplicates and average values were calculated therefrom. A standard inhibitor (10 nM thiorphan) and a solvent control (0.1% DMSO) were likewise measured as quality controls on each run. In this test model the test substances of Formula I listed in the following Table 1 had the IC50 values given below: […]

Series [4] has as its target T2, His6-tagged hSEP ectodomain (Homo sapiens, UniProt Q495T6).
T2 construct: His6-tagged hSEP ectodomain; His6; purchased Innogenetics, Ghent, Belgium
T2 sequence (Q495T6 49-779 limits assumed): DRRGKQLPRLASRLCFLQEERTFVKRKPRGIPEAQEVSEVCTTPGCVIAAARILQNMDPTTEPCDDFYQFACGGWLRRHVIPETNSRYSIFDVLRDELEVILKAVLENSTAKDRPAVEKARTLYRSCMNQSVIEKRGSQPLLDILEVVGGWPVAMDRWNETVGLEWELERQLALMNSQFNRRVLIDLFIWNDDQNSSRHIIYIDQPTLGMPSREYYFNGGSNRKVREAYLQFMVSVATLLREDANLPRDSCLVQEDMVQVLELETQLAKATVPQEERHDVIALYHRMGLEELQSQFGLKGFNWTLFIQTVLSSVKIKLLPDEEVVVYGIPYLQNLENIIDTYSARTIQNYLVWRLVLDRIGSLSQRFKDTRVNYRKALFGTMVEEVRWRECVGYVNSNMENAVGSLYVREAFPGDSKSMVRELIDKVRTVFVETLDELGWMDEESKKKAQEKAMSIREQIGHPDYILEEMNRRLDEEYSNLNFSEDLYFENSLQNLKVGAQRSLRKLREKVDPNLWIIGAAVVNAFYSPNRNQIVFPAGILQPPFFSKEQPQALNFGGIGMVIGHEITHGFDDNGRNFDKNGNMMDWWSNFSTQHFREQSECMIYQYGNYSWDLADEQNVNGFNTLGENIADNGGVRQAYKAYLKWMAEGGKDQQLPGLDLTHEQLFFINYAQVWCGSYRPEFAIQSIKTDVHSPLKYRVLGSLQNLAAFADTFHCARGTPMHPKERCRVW
In words: In vitro investigation of the hSEP-inhibitory action (fluorescence-quenched Big-ET-1 analogue, HPLC). It counts as biochemical. How it is done:
2. In Vitro Investigation of the hSEP-Inhibitory Action of the Substances
In this test, the measure of the inhibitory activity of the substances which was determined was their IC50 value. The IC50 value of a test substance having enzyme-inhibitory activity is that concentration of the test substance at which 50% of the enzymatic activity of the hSEP is blocked.
The test and the HPLC procedure were carried out analogously to the manner set forth above for determining the in vitro inhibitory action of the test substances on NEP. 10 nM phosphoramidon served as standard inhibitor in the HPLC procedure. In this test model the test substances of Formula I listed in the following Table 2 had the IC50 values given below: […]

Series [5] is described as follows: Plasma protein binding, equilibrium dialysis, human plasma. It is filed as in vitro ADME. The following applies: human plasma (10% for routine testing), 37° C., pH 7.4, 10% plasma (100% for low binders), read-out: % bound (human plasma) (converted). As for the experimental part:
(§1) Plasma protein binding of the test substances of Formula I was measured using a validated equilibrium dialysis method. The dialysis cells consisted of two halves separated by a semi-permeable membrane slightly tensioned in between. […] Before being used, the membranes were re-hydrated by soaking in water followed by the dialysis buffer. Plasma (10% for routine testing, and 100% for compounds found to have a low protein binding) was heated to 37° C. and adjusted to pH 7.4 before use. 5 μM test compound solutions (final dimethylsulfoxide concentration 0.5%) were prepared in isotonic phosphate buffer containing rat or human plasma. The plasma-containing solution was on one side of the membrane, and the plasma-free on the other. Incubations were performed overnight (10% plasma assay), or for 2 hours (100% plasma assay) in triplicate. The cells were mounted in a drive unit that rotated the cells and ensured a uniform equilibrium was obtained. The equilibrium was temperature controlled by the drive unit being immersed in a water bath at 37° C. At the end of the equilibration time, the cells were emptied. The solutions for each batch of compounds were combined into two groups (plasma-free and plasma-containing) then cassette analysed by LC-MS/MS using two sets of calibration standards for plasma-free (7 points) and plasma-containing solutions (6 points). The percentage of protein bound compound was calculated as follows: [formula] PC=sample concentration in protein containing side; PF=sample concentration in protein free side;

The nature of series [6]: Plasma protein binding, equilibrium dialysis, rat plasma. It is filed as in vitro ADME. The following applies: rat plasma (10% for routine testing), 37° C., pH 7.4, 10% plasma (100% for low binders), read-out: % bound (rat plasma) (converted). How it is done:
as §1
On the technique in general: Equilibrium dialysis compares concentrations on both sides of a semipermeable membrane.

What is called ED50 is the midpoint of the dose-response relation. Read a low ED50 as an effect at a small dose. `CN(CCCCCN)C(=O)CC(CC1(C(=O)NC2CCc3ccccc3N(CC(=O)O)C2=O)CCCC1)C(=O)O` (racemic) [Example 78, 4-[(5-aminopentyl)(methyl)amino]-2-{[1-({[1-(carboxymethyl)-2-oxo-2,3,4,5-tetrahydro-1H-1-benzazepin-3-yl]amino}carbonyl)cyclopentyl]methyl}-4-oxobutanoic acid]: the change in vivo at 3 µmol/kg in series [1] was -82%. Moreover, the ED50 in series [2] was < 1 µmol/kg.

Turning to `CN(CCCCN)C(=O)CC(CC1(C(=O)NC2CCc3ccccc3N(CC(=O)O)C2=O)CCCC1)C(=O)O` (racemic) [Example 75, 4-[(4-aminobutyl)(methyl)amino]-2-{[1-({[1-(carboxymethyl)-2-oxo-2,3,4,5-tetrahydro-1H-1-benzazepin-3-yl]amino}carbonyl)cyclopentyl]methyl}-4-oxobutanoic acid], the change in vivo at 3 µmol/kg in series [1] was -52%. The compound further had an ED50 in series [2] of 0.1 µmol/kg.

As a reminder, the IC50 is the concentration that gives 50% inhibition. As to `CCN(CCCN)C(=O)CC(CC1(C(=O)NC2CCc3ccccc3N(CC(=O)O)C2=O)CCCC1)C(=O)O` (racemic) [Example 67, 4-[(3-aminopropyl)(ethyl)amino]-2-{[1-({[1-(carboxymethyl)-2-oxo-2,3,4,5-tetrahydro-1H-1-benzazepin-3-yl]amino}carbonyl)cyclopentyl]methyl}-4-oxobutanoic acid], the IC50 in series [3] turned out to be 0.015 µM; in series [4], 0.012 µM. Besides, the change in vivo at 10 µmol/kg in series [1] is -109%. This compound displayed an ED50 in series [2] of 0.5 µmol/kg.

On to `CC(C)N(C)C(=O)CC(CC1(C(=O)N[C@H]2CCc3ccccc3N(CC(=O)O)C2=O)CCCC1)C(=O)O` (single isomer, unassigned) [Example 63], for which the fraction unbound at 5 μM in series [5] was 0.6; in series [6], 0.31. In addition, the IC50 in series [3] was found to be 0.009 µM. In addition, the ED50 in series [2] came out at 0.08 µmol/kg.

As for `CCOC(=O)C(CC(=O)NCCCO)CC1(C(=O)N[C@H]2CCc3ccccc3N(CC(=O)O)C2=O)CCCC1` (stereo in doubt) [Example 8], the change in vivo at 10 µmol/kg in series [1] is -113%. The compound also had an ED50 in series [2] of 0.2 µmol/kg.

For the compound `CNCCN(C)C(=O)CC(CC1(C(=O)NC2CCc3ccccc3N(CC(=O)O)C2=O)CCCC1)C(=O)O` (racemic) [Example 68, 2-{[1-({[1-(carboxymethyl)-2-oxo-2,3,4,5-tetrahydro-1H-1-benzazepin-3-yl]amino}carbonyl)cyclopentyl]methyl}-4-{methyl[2-(methylamino)ethyl]amino}-4-oxobutanoic acid], the change in vivo at 10 µmol/kg in series [1] was -108%. This compound gave an ED50 in series [2] of 0.7 µmol/kg.
